Experimental data: patent publication US20230255954A1, “INTERLEUKIN 33 (IL-33) INHIBITION FOR TREATMENT OF CANCER, FIBROSIS AND INFLAMMATION” (The General Hospital Corporation, priority 2020, published 2023)

What was measured:
[1] = test system: endogenous Il33 expression in PyMT breast cancer cell line; test: Endogenous Il33 RNA in PyMT breast cancer cell line; format: cell-based, mouse
Protocol: Pam212 cells were grown at 37° C. in DMEM (Thermo Fisher Scientific, Waltham, Mass., catalog no. 11995065) supplemented with 10% fetal bovine serum (Thermo Fisher Scientific, catalog no. 26140079), 1× penicillin-streptomycin-glutamine (Thermo Fisher Scientific, catalog no. 10378016), 1×MEM non-essential amino acids solution (Thermo Fisher Scientific, catalog no. 11140050), 1×HEPES (Thermo Fisher Scientific, catalog no. 15630080) and 0.1% 2-Mercaptoethanol (Thermo Fisher Scientific, catalog no. 21985023). […]
Mouse dorsal skin samples were homogenized and lysed in RLT lysis solution (QIAGEN, catalog no. 79216)/0.1% MeOH using Mini-BeadBeater-8 (BioSpec Products, Inc., Bartlesville, Okla.). Total RNA was extracted using an RNeasy micro kit and quantified using NanoDrop ND-1100 (NanoDrop Technologies, Wilmington, Del.). cDNA samples were synthesized from 1 μg of total RNA using Invitrogen SuperScripts III Reverse Transcriptase (Thermo Fisher Scientific, catalog no. 18080085). Expression levels of all cDNA samples were determined with LightCycler 480 system (Roche Molecular Systems Inc., Pleasanton, Calif.) using TaqMan Universal Master Mix II (Thermo Fisher Scientific, catalog no. 44-400-40). […]

[2] = test system: DNFB treated mice back skin; test: DNFB chronic skin inflammation model with pitavastatin; format: in vivo, mouse
Protocol: Four- to six-week old male and female mice were shaved on their abdomen and sensitized to 50 μL 0.5% 1-Fluoro-2,4-dinitrobenzene (DNFB, Millipore Sigma, St. Louis, Mo., catalog no. 42085) dissolved in acetone plus olive oil at 3:1 ratio (refer to as acetone). Two days after first sensitization, mice were re-sensitized to 50 μL 0.25% DNFB on their abdomen. After 5 days, mice were challenged with 100 μL 0.25% DNFB on their back skin, which was repeated three times per week for 22 days. Skin rash was monitored over the duration of the study.
Mice were treated with 0.5 mM pitavastatin in 200 μL 70% ethanol or 200 μL 70% ethanol alone to their back skin twice a week. Pitavastatin/70% ethanol treatments were given in DNFB doses.
Tissue samples were collected and fixed in 4% paraformaldehyde (Millipore Sigma, catalog no. P6148) overnight at 4° C. Next, tissues were dehydrated in ethanol, processed and embedded in paraffin. 5 μm sections paraffin-embedded tissues were placed on slides, deparaffinized and stained with H&E or toluidine blue (for mast cell detection). For immunohistochemistry, antigen retrieval was performed in 500 μL of antigen unmasking solution (VECTOR Laboratories, Burlingame, Calif., catalog no. H3300) diluted in 50 mL water using Cuisinart pressure cooker for 20 min at high pressure. Slides were washed three times for three minutes each in 1×TBS with 0.025% Triton X-100. Sections were blocked with 1% bovine serum albumin (Thermo Fisher Scientific, catalog no. BP1600) and 5% goat serum (Millipore Sigma, catalog no. G9023) for 1 hour. Slides were stained overnight at 4° C. with a primary antibody diluted in TBS containing 1% BSA (Appendix Table S2). The following day, slides were washed as above and incubated in 100 μL biotinylated secondary antibody (VECTOR Laboratories, catalog no. PK-6200) for 30 min. After washing, slides were incubated with 100 μL mixture of reagent A and B from VECTASTAIN Elite ABC universal kit Peroxidase (VECTOR Laboratories, catalog no. PK-6200) for 30 min. After washing, slides were incubated with 100 μL ImmPACT DAB chromogen stating (VECTOR Laboratories, catalog no. SK-4105) for a few minutes. Finally, slides dehydrated in ethanol and xylene and mounted with a coverslip using 3 drops of mounting media.
Next, we also investigated effect of pitavastatin in vivo chronic inflammation model. […] Next, we studied the effect of pitavastatin treatment on chronic inflammation in mice. […] Furthermore, both IL-33 and nuclear IRF3 were reduced in same epithelial region of DNFB plus pitavastatin versus DNFB plus carrier treated mice (FIGS. 12D and E). Thus, pitavastatin is a small molecule IL-33 inhibitor that suppresses skin inflammation.

[3] = DNFB plus pitavastatin versus DNFB plus carrier
[4] = topical DNFB plus pitavastatin vs DNFB plus carrier

For O=C(O)C[C@H](O)C[C@H](O)/C=C/c1c(C2CC2)nc2ccccc2c1-c1ccc(F)cc1 [pitavastatin], the “endogenous Il33 RNA level” value [1] was “inhibitory effect”, the “chronic inflammation in back skin” value ([2]; 0.5 mM pitavastatin in 200 μL 70% ethanol on back skin twice a week, compared to only DNFB treated mice) was “mild chronic inflammation” and the “IL-33 in epithelial region (staining)” value [2, 3] was “reduced”. For the same compound, the “nuclear IRF3 in epithelial region (staining)” value [2, 3] was “reduced”, the “IL-33 expression, RNA level” value ([2]; DNFB treated mice skin) was “decreased” and the “IL-33 expression, protein level” value ([2]; DNFB treated mice skin) was “decreased”. The p-IRF3 ([2]; compared to only DNFB treated group) was “decreased”, the epidermal thickness [2, 4] was “reduced” and the mast cell infiltration [2, 4] was “reduced”.
